Results: patent US5700446A, “Synthesis of ferrocenyl phenyltropane analogs and their radio-transformation to technetium neuroprobes for mapping monoamine reuptake sites” (Neuro Imaging Technologies, LLC, priority 1996, dated 1997)

Columns and labels:
[1] = target: T1, serotonin transporter (Rattus norvegicus, UniProt P31652); experiment: Radioreceptor binding assay, serotonin transporter ([3H]paroxetine), rat frontoparietal cerebral cortex membranes; details: [3H]paroxetine 0.2 nM, 60 min at 20° C., Tris buffer pH 7.4, rat frontoparietal cortex; ±SEM; read-out: Serotonin Transporter (5-HTT) (Ki)
T1 construct: rat brain corpus striatum (for the dopamine transporter) or frontoparietal cerebral cortex (for the serotonin and norepinephrine transporters); from tissue; host or cells: rat frontoparietal cerebral cortex, crude membrane fraction

[2] = target: T2, dopamine transporter (Rattus norvegicus, UniProt P23977); experiment: Radioreceptor binding assay, dopamine transporter ([3H]GBR-12935), rat brain corpus striatum membranes; details: for Ki: [3H]GBR-12935 0.4 nM, 45 min at 4° C., Tris buffer pH 7.4, rat corpus striatum, ±SEM, read-out: Dopamine Transporter (DAT) (Ki); for DAT/5-HTT Selectivity: ratio of Ki for the dopamine transporter to the Ki for the serotonin transporter
T2 construct: crude membrane fraction of homogenates of rat brain corpus striatum (for the dopamine transporter); from tissue; host or cells: rat brain corpus striatum, crude membrane fraction
T2 sequence (P23977 whole entry): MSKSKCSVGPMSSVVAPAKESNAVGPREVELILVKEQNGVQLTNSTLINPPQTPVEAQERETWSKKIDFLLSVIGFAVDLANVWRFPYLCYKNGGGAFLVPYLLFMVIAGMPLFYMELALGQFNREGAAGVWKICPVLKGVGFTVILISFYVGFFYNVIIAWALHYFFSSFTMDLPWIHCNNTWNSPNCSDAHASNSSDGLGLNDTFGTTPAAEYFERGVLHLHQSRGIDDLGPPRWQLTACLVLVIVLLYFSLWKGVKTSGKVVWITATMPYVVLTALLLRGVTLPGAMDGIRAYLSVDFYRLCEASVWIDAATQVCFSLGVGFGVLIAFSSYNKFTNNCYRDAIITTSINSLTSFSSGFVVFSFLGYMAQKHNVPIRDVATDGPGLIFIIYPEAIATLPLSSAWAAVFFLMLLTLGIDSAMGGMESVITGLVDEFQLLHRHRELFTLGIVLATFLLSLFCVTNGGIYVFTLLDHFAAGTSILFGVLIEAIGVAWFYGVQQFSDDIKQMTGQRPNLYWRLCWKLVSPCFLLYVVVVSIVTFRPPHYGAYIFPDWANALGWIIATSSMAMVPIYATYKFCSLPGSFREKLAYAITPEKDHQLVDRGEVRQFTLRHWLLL

T1 sequence (P31652 whole entry): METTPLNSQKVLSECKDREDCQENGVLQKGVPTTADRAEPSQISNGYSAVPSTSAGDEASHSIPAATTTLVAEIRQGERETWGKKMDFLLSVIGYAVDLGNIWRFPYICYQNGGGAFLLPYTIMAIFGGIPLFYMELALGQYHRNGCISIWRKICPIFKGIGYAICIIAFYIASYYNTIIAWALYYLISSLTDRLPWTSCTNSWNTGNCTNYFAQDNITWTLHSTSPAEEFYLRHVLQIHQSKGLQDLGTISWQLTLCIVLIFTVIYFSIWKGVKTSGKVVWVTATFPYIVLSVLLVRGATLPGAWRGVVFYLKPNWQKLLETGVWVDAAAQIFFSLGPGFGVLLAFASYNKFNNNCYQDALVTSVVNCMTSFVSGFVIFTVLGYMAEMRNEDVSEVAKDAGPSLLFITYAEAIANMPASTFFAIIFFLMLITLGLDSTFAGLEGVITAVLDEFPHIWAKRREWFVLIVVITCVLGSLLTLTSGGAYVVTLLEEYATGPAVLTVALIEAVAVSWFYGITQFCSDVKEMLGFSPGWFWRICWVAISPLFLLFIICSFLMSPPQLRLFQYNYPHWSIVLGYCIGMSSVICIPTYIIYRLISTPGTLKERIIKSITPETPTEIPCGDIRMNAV

In the case of “3β-(4-Chlorophenyl)-2β-tricarbonylrheniumcyclopentadienylcarboxymethyl)tropane [RBI-219]”, the Ki [1] is reported as 11.9 ± 1.7 nM, the Ki [2] is reported as 4.41 ± 0.76 nM and the “DAT/5-HTT Selectivity” value [2] is reported as 0.37.
For “N-(tricarbonylrheniumcyclopentadienylbutan-1-one-4-yl)-2β-carbomethoxy-3β-(4-chlorophenyl)nortropane [RBI-235]”, the Ki [1] was 0.37 ± 0.04 nM, the Ki [2] was 1.29 ± 0.1 nM and the “DAT/5-HTT Selectivity” value [2] was 3.49.
For “N-(tricarbonylmanganesecyclopentadienylbutan-1-one-4-yl)-2β-carbomethoxy-3β-(4-chlorophenyl)nortropane [RBI-233]”, the Ki [1] was 0.84 ± 0.06 nM, the Ki [2] was 1.67 ± 0.39 nM and the “DAT/5-HTT Selectivity” value [2] was 2.
For “3β-(4-iodophenyl)-2β-(tricarbonylrheniumcyclopentadienylcarboxymethyl)tropane [RBI-211]”, the Ki [1] was 34.6 ± 3.4 nM, the Ki [2] was 7.22 ± 1.06 nM and the “DAT/5-HTT Selectivity” value [2] was 0.21.
With “N-(tricarbonylrheniumcyclopentadienylcarboxypropyl)-2β-carbomethoxy-3β-(4-chlorophenyl)nortropane [RBI-232]” the Ki [1] was 0.56 ± 0.08 nM, the Ki [2] was 2.66 ± 0.33 nM and the “DAT/5-HTT Selectivity” value [2] was 4.75.
